Square brackets hold non-standard residues; d marks the D form. Ends that are not written are not given here. Pra = C#CC[C@H](N)C(=O)O; Az8 = not defined here
What was measured:
[1] = molecular target: T1, E17K mutant Akt1 PH Domain (Homo sapiens, UniProt P31749, E17K); experiment: Streptavidin-agarose pulldown assay; assay type: binding; conditions: Western blot, relative protein band sizes
T1 construct: The first 124 N-terminal amino acids from full length Akt1 were used as the PH Domain DNA; thrombin cleavage site (C); 6-His (C); made in house; host or cells: E. coli
Description: (§1) These resins were then incubated with either (a) WT or (b) E17K Mutant PHD to measure the amount of pulldown for each potential anchor ligand. Peptide eefef is SEQ ID NO:5. Peptide yleaf is SEQ ID NO:16.
(§2) Pulldown assays were done on Streptavidin Agarose resin from Novachem. The resin was incubated with N-terminally biotinylated anchor peptide candidates identified via the ClusterLigand sequence analysis. The anchor candidate coated beads were then incubated with both wildtype and mutant protein to compare the selectivity of the ligands, as well as the binding ability.
(§3) Assays were done with 50 uL of Streptavidin-Agarose slurry (25 uL resin) in Spin-X tubes. Resin was aliquotted into 14 tubes—six ligands plus a blank tested against two different proteins, then washed three times with 1×TBS with 0.25% IPEGAL detergent added. Each set of tubes was incubated with 170 nmol of the appropriate biotinylated ligand in 200 uL 1×HEPES (10 mM HEPES, 150 mM NaCl, 0.25% IPEGAL, 5 mM EDTA) or plain buffer for the blank. Ligand binding was done for one hour at room temperature, then resin was washed three times with 1×HEPES. Resin was blocked with 1×HEPES with 5% BSA for two hours. The anchor-coated resin was then incubated with either wildtype or mutant expressed PH domain protein overnight (˜16 hours) in cold room (4° C.). Protein was spun out of tubes, and the resin was washed three times with high salt TBS, then incubated for five minutes in the high salt buffer. The resin was then washed three times with the 1×TBS buffer, and spun out to dry completely. 50 uL of denaturing SDS gel loading buffer with 10% B-mercaptoethanol was added to the samples and they were incubated at 95° C. for ten minutes to denature. The gel loading buffer was spun out of the Spin-X tubes and the samples were run on an Any KD BioRad Premade Gel under denaturing conditions. Gel was transferred to nitrocellulose membrane and western blotted. Proteins were detected using rabbit polyclonal anti-Akt1 antibody (ab64148, Abcam) and an anti-rabbit HRP conjugated secondary anti-body then developed with West Pico Chemilluminescent substrate (Pierce).

wildtype Akt1 PH Domain = molecular target: T2, wildtype Akt1 PH Domain (Homo sapiens, UniProt P31749); experiment: Streptavidin-agarose pulldown assay; assay type: binding; conditions: Western blot, relative protein band sizes
T2 construct: The first 124 N-terminal amino acids from full length Akt1 were used as the PH Domain DNA; thrombin cleavage site (C); 6-His (C); made in house; host or cells: E. coli
Description: as §1, §2, §3

Akt1 = experiment: Specificity ELISA, immobilized ligand probed with His-tagged kinases; design: species or system H. sapiens; conditions: A450 normalized to Akt1-S473E binding; kinase panel
Description: (§4) Biotinylated ligand was immobilized on Streptavidin plates and probed with 25 nM His-tagged kinase followed by anti-Histag antibody-HRP conjugate. Values represent the mean A450 obtained from three experiments after normalization to Akt1-S473E binding. The error bars show the standard error.
(§5) The specificity of the anchor ligand, biligand, and triligand developed in Example 1 was analyzed using a battery of protein kinases. […] Akt1-S473E was expressed and purified as described above.
(§6) The relative affinity of each kinase was determined by probing with an anti-His6 antibody and normalizing the response to Akt1-S473E. All proteins were diluted in Akt blocking buffer to a final concentration of 24 nM prior to use. Ligands were diluted in Akt blocking buffer to a final concentration of 2.5 μM prior to use. 100 μL of each ligand (250 pmol) was added to each well of a HBC streptavidin-coated 96-well plate. The ligands were bound at 4° C. for 1 hour followed by addition of D-biotin to a final concentration of 500 μM. After 10 minutes at 4° C., the wells were washed three times with Akt blocking buffer and blocked overnight in 5% non-fat milk.
(§7) The wells were washed three times in Akt blocking buffer and 50 μL of active protein was applied to each well. After binding for 120 minutes at 4° C., the wells were washed three times in Akt blocking buffer to remove unbound protein. 50 μL of horseradish peroxidase-conjugated Anti-His6 antibody was added at a dilution of 1:100 (His Probe (H-3) HRP conjugate, Santa Cruz Biotechnology). The antibody-HRP conjugate was incubated for 60 minutes and the wells were washed 3 times in TBST and once in TBS. 50 μL of peroxidase substrate (KPL) was added and the resulting color change was quenched with 50 μL 1 M H2SO4. The A450 measured on a 96-well plate reader. […] The mean value for the triplicates was calculated and plotted and the error bars were generated from the standard error of the mean (GraphPad Prism).

GSK3β = molecular target: T3, GSK3β (Homo sapiens, UniProt P49841); experiment: as above; conditions: A450 normalized to Akt1-S473E binding
T3 construct: a set of His-tagged active protein kinase domains from the AGC family; purchased Invitrogen
Description: as §4, §5, §6, §7

Akt = experiment: Immunoprecipitation of Akt from OVCAR3 cell lysates with immobilized ligands; assay type: binding; conditions: EGF and insulin induced or control, Western blot with pan-Akt antibody
Description: A representative 12% gel stained with Coomassie and imaged. Lane 1: Lysate, Lane 2: Anchor resin, Lane 3: Biligand resin, Lane 4: Triligand resin, Lane 5: 5G3 mAb resin.
After 18 hours at 4° C., resins were washed exhaustively, eluted with SDS-PAGE sample buffer, and analyzed by Western blotting. 1. Blank resin, 2. Anchor, 3. Biligand, 4. Triligand, 5. [5G3] mAb, L. lysate.
For the IP experiments, the anchor, biligand, and triligands were immobilized on streptavidin-agarose, and each resin was panned with OVCAR3 cell lysates obtained from untreated cells or cells stimulated with a combination of epidermal growth factor (EGF) and insulin.
OVCAR3 cells were grown in RPMI-1640 media containing 10% fetal bovine serum, penicillin, and streptomycin. Passage 4 cells were grown to ˜60% confluence and treated with insulin and EGF at final concentration of 10 μg/mL and 20 ng/mL respectively (induced) or mock treated (control). Cells were grown for an additional 24 hours and then lysed with lysis buffer (10 mM Tris-Cl (pH=7.5), 100 mM NaCl, 1% (v/v) Triton X-100, 0.1% SDS (w/v), 0.5% deoxycholate, 1 mM DTT, 1 mM EDTA, 1× PhosStop phosphatase inhibitors (Roche), 1× Complete protease inhibitors (Roche). Cell lysate protein concentrations were determined by Bradford assays. […]

Akt1-S473E-T308P [2] = experiment: [γ-32P]-ATP kinase activity assay, inhibition of Akt1-S473E-T308P; assay type: biochemical, H. sapiens; conditions: 120 μM compound, 30 minutes at room temperature, in the absence and presence of the conjugated small molecule inhibitor
Description: Peptide is SEQ ID NO:22. Kinase reactions were carried out with 120 μM of each compound for 30 minutes at room temperature. The amount of phosphorylated substrate was quantitated by liquid scintillation counting and the % Akt1-S473E-T308P activity determined based on the amount of product formed in the control kinase reaction. The values shown are the mean value of three experiments and the error bars are the standard deviation.
The activity of Akt-S473E-T308P was characterized by a [γ-^32P]-ATP kinase activity assay measuring the incorporation of ^32P into biotinylated crosstide peptide (Anaspec). Briefly, reactions containing 80 ng of Akt-S473E-T308P, 50 μM Bio-crosstide, and varying concentrations of ATP/[γ-^32P]-ATP (specific activity=1.5 mCi/mL).
(§8) Candidate sequences were scaled up and tested for their ability to inhibit Akt1-S473E-T308P activity. […] This peptide was re-synthesized as a C-terminal biotinylated peptide and used as the anchor in the biligand screen.

Akt1-S473E-T308P [3] = experiment: Phosphorylation of biotinylated anchor peptide in standard kinase reaction; assay type: biochemical, H. sapiens; conditions: 30 min at room temperature, liquid scintillation counting
Description: Biotinylated peptides were incubated in a standard kinase reaction mixture for 30 min. at room temperature. A portion of the reaction was spotted onto a SAM2 Biotin Capture Membrane (Promega), washed, and analyzed by liquid scintillation counting. The total counts per minute (cpm) are shown for the anchor peptide (VFYRL-Bio(1) (SEQ ID NO:22) and VFYRL-Bio(2) (SEQ ID NO:22)) as well as the standard substrate peptide (Bio-Crosstide). The number in parentheses identifies the diastereomer based on retention time in RP-HPLC.
as §8

Akt-S473E = experiment: ELISA with immobilized Akt-S473E, relative affinity of biotinylated ligands; assay type: binding, H. sapiens; conditions: read-out: binding affinity for Akt
Akt-S473E, sequence (P31749 144-449 limits assumed, stated change not applied): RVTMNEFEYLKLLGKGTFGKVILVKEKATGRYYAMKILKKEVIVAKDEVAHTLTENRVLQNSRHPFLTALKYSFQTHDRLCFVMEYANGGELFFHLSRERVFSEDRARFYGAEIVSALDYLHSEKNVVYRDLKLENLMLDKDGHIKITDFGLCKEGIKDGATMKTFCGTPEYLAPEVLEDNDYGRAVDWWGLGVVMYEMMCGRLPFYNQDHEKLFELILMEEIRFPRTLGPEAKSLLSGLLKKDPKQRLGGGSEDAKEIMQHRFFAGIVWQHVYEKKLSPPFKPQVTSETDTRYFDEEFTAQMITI
Description: Akt-S473E was immobilized on Ni-NTA plates and incubated with varying concentrations of biotinylated peptide. All values were normalized to the binding observed at saturation.
The affinity of the anchor ligand, biligand, and triligand developed in Example 1 was determined by ELISA with immobilized Akt-S473E.
3 μg of Akt-S473E was added to each well in a HisSorb Ni-NTA plate (Qiagen) in 50 μL of ELISA blocking buffer (25 mM Tris-Cl (pH=7.5), 150 mM NaCl, 10 mM MgCl2, 0.1% (v/v) Tween-20, and 4 mg/mL BSA). 50 μL of imidazole blocking buffer (25 mM Tris-Cl (pH=7.5), 150 mM NaCl, 10 mM MgCl2, 0.1% (v/v) Tween-20, 100 mM imidazole, and 4 mg/mL BSA) was added to the control wells. After 18 hours at 4° C., the wells were washed with ELISA blocking buffer and 50 μL of each ligand dilution was added in ELISA blocking buffer. The ligands were bound at 4° C. for 120 minutes followed by three washed in ELISA blocking buffer. 50 μL of horseradish peroxidase-conjugated streptavidin (SA-HRP, Thermo) was added (1:5000 dilution in ELISA blocking buffer) and incubated for 70 minutes at 4° C. […] 50 μL of peroxidase substrate (KPL) was added to generate the final signal which was quenched in 1 M H2SO4 and quantitated on a 96-well plate reader at X=450 nm. The Net A450 was calculated by subtracting the A450 of each blank well (No Akt-S473E) from the experimental well. […]

T1 sequence (P31749 1-124 E17K): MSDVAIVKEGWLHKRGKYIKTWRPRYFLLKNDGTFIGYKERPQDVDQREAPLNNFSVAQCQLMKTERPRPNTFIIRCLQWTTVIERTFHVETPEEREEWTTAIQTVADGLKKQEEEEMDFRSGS
Akt1-S473E-T308P, sequence (P31749 150-449 limits assumed, stated change not applied): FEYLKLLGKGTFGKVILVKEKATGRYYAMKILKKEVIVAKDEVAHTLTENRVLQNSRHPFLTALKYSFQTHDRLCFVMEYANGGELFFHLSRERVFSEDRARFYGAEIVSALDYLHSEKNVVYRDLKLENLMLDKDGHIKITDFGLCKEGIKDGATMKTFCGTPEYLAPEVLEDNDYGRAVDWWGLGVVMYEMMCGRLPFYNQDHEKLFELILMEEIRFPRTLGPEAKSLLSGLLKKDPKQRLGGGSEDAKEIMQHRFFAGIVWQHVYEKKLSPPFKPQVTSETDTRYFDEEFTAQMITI
Akt1, sequence (P31749 150-408 limits assumed): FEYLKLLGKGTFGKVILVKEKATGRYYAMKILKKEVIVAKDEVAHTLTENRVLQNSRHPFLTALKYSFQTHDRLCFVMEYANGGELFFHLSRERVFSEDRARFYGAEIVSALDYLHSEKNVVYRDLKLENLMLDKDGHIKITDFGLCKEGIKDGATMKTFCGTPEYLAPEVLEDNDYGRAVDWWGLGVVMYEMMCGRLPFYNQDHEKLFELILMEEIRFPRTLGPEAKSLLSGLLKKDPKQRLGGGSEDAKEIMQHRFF
T3 sequence (P49841 56-340 limits assumed, species assumed): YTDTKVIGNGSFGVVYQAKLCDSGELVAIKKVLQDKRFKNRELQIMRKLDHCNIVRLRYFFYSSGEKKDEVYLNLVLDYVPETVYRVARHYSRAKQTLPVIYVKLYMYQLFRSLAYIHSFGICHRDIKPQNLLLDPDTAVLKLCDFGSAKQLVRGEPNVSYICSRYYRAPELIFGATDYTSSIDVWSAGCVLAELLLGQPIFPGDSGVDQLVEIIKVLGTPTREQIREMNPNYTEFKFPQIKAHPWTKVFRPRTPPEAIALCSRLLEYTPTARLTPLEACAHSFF
T2 sequence (P31749 1-124): as the sequence (P31749 1-124 E17K) above, with K17E counted along it

Substance	pulldown of E17K mutant PH Domain [1]	pulldown of wildtype PH Domain (wildtype Akt1 PH Domain)	specificity / selectivity for Akt1 (Akt1)	binding to GSK3β (GSK3β)	immunoprecipitation of Akt (Akt)	inhibition of Akt1 (Akt1-S473E-T308P [2])	phosphorylation by Akt in vitro (Akt1-S473E-T308P [3])	Kd (Akt-S473E)
eefef ([dE][dE][dF][dE][dF]; not fully specified (N-terminus); printed as eefef; also: biotinylated, position not confirmed)	the least pulldown for the mutant protein	the only pulldown of the wildtype protein	–	–	–	–	–	–
biligand: anchor ligand Az8-VFYRLGY linked by 1,4-triazole to secondary ligand Pra-FWFLRG-CONH2; biotinylated for assays (peptide 2 [Pra]FWFLRG-NH2; not fully specified (N-terminus, C-terminus, bridges); reading uncertain; also: biotinylated for assays, triazole at chain B 1 to a chain's N-terminus)	–	–	reduced selectivity	significant cross-reactivity	increased affinity	–	–	–
Az8-VFYRLGY-CONH2 [anchor ligand]	–	–	very specific for the Akt1 protein	only modest binding	–	~95%	not phosphorylated	> 25 µM
yleaf ([dY][dL][dE][dA][dF]; not fully specified (N-terminus); printed as yleaf; also: biotinylated, position not confirmed)	the greatest binding to the mutant	the least binding to the wildtype	–	–	–	–	–	–

— patent US12480950B2, “AKT-specific capture agents, compositions, and methods of using and making” (California Institute of Technology, priority 2011, dated 2025)
